Patent US12721846B2, “Methods for treating behavioral and psychological symptoms in patients with dementia” (SUVEN LIFE SCIENCES LIMITED, priority 2019, dated 2026)
Entries after “also recorded” stand apart in the source; their conditions may differ.

Columns and labels:
[1] = cited from earlier work
[2] = system: Swiss albino mice (aggression, duration of attack); assay: Resident-intruder task; assay type: in vivo, mouse; settings: masupirdine 0.30 mg/kg p.o. 60 min prior; donepezil or memantine 0.30 mg/kg i.p. 30 min prior; 10 min exposure
Description: Male Swiss albino mice of weight range 30-40 g (Resident) and 15-25 g (Intruder) were used. Resident mice were habituated individually with an ovariectomized female mouse in each cage for at least 2 weeks and intruders were habituated socially for at least 5 days. β-Estradiol at a dose of 0.2 mg/kg, s.c. was administered to ovariectomized female mice during habituation. After habituation for 3 weeks, the intruder was exposed to resident mice for a period of 10 min in the home cage of resident animal and duration of attack was recorded for two days (day 1 & 2). During this 10 min exposure period, ovariectomized female mice were removed from resident cage, resident animals were randomized based on their duration of attack. On day 4 (from initial exposure), resident animals were administered respective treatments. […] After post dose interval resident mice were exposed to same intruder for 10 min and duration of attack was recorded. Data were analyzed using GraphPad Prism software.

[3] = system: norepinephrine and dopamine levels in prefrontal cortex; assay: Microdialysis: modulation of norepinephrine and dopamine levels in cortex; assay type: in vivo, rat; settings: male Wistar rats, masupirdine 3 mg/kg p.o., donepezil or memantine 1 mg/kg s.c.
From the text: Male Wistar rats (240-300 g body weight) were stereotaxically implanted with a microdialysis guide cannula in prefrontal cortex (PFC; AP: +3.2 mm, ML: −0.5 mm, DV: −1.0 mm) under isoflurane anesthesia. […] The rats were allowed to recover individually for four days in a round bottom Plexiglas bowl with free access to feed and water.
Sixteen hours before start of the study, a pre-equilibrated microdialysis probe (4 mm dialysis membrane) was inserted into PFC through the guide cannula. On the day of study, probe was perfused with artificial cerebrospinal fluid (aCSF; NaCl 150 mmol, KCl 3.0 mmol, MgCl2 0.9 mmol, CaCl2. 2H2O 1.7 mmol, pH 6.2) at a flow rate of 1.5 μL/min and a stabilization period of 2 h was maintained. […] Dialysates were stored below −50° C. prior to analysis.
Norepinephrine and dopamine levels in dialysates were quantified using LC-MS/MS method.
Statistical significance was considered at a p value less than 0.05.

[4] = 30 mg daily dose; patients with AD; cited from earlier work
[5] = system: DOI induced head twitch response (model of hallucination); assay: DOI induced head twitch response; assay type: in vivo, rat; settings: 1 mg/kg, p.o.; DOI 5 mg/kg s.c.; 10 min
Description: DOI induced head twitch response is considered to be a behavioral model of hallucination (Pharmacol Rep. 2012; 64(6):1567-72). Male Wistar rats of 200-290 g were weighed and randomized according to their body weights. On day 1, rats were first habituated to the arena for 15 min. […] 15 min before the trial, rats were subjected to habituation and immediately following the habituation, DOI, 5 mg/kg s.c was administered. The rats were then placed in the arena and head twitches were recorded for 10 min. Data were analyzed using GraphPad Prism software.

**Q.** For `CC(C)COc1ccc(CNC(=O)N(Cc2ccc(F)cc2)C2CCN(C)CC2)cc1` [Pimavanserin], which effect for agitation ([1]; AD study) is on record?
**A.** Its effect for agitation is “no effect”.

**Q.** And the “effect on NPI-NH psychosis scale” value ([1]; week 6)?
**A.** The value was “statistically significant effect”.

**Q.** Which results are given for `CC12CC3CC(C)(C1)CC(N)(C3)C2` [memantine]?
**A.** duration of attack compared with basal [2]: decrease in duration of attack when compared with its basal; however it was not statistically significant; cortical dopamine levels, AUC of percent change [3]: 327.75±24.99; cortical norepinephrine levels, AUC of percent change [3]: 371.34±22.45

**Q.** Which “adverse effects seen in treatment group” value [4] does the source give for `CN(C)CCCC1(c2ccc(F)cc2)OCc2cc(C#N)ccc21` (centres unmarked) [Citalopram] here?
**A.** The value was “Worsening of cognition; also recorded: QT interval prolongation”.

**Q.** Which “number of head twitches” value [5] does the source give for `COc1ccc2c(c1)c(CN1CCN(C)CC1)cn2S(=O)(=O)c1ccccc1Br` [masupirdine, 1-[(2-bromophenyl)sulfonyl]-5-methoxy-3-[(4-methyl-1-piperazinyl)methyl]-1H-indole] here?
**A.** The value was “significantly reduced the number of head twitches”.

**Q.** And the “duration of attack compared with basal” value [2]?
**A.** Its value is “equal duration of attack”.
